Results as given in the NIST ThermoML archive (doi:10.1016/j.tca.2009.06.015).
Values joined by “and” are separate entries in the source; they are usually repeats but may differ in a detail not shown here. Identical values can stand only once.

Legend:
[1] = 101 kPa, Liquid; for viscosity: Capillary tube (Ostwald / Ubbelohde) method; for mass density: Vibrating tube method
[2] = refractive index (Na D-line) (dimensionless); settings: 101.33 kPa, Liquid, Standard Abbe refractometry
[3] = refractive index (Na D-line) (dimensionless); xn = mol fraction of the nth substance listed; settings: 101 kPa, Liquid, Standard Abbe refractometry
[4] = xn = mol fraction of the nth substance listed; settings: 101 kPa, Liquid; for viscosity: Capillary tube (Ostwald / Ubbelohde) method; for mass density: Vibrating tube method

CCCCCC(C)O (stereo unspecified) [2-heptanol]
Settings | mass density, [1] [kg/m3] | refractive index, [2] | viscosity, [1] [mPa·s]
293.15 K | 817.18 | 1.4206 | 6.52
298.15 K | 813.33 | 1.4188 | 5.33
303.15 K | 809.44 | 1.4165 | 4.301
308.15 K | 805.5 | 1.4143 | 3.528

CCCCC(C)O (stereo unspecified) [2-hexanol]
Settings | mass density, [1] [kg/m3] | refractive index, [2] | viscosity, [1] [mPa·s]
293.15 K | 814.08 | 1.4135 | 5.155
298.15 K | 810.14 | 1.4116 | 4.1
303.15 K | 806.13 | 1.4093 | 3.41
308.15 K | 802.06 | 1.4077 | 2.819

CC#N [acetonitrile]
Settings | mass density, [1] [kg/m3] | refractive index, [2] | viscosity, [1]
293.15 K | 782.04 | 1.3436 | 0.3542 mPa·s
298.15 K | 776.64 | 1.3411 | 0.3369 mPa·s and 0.336 mPa·s
303.15 K | 771.21 | 1.339 | 0.3254 mPa·s and 0.325 mPa·s
308.15 K | 765.75 | 1.3371 | 0.3082 mPa·s and 0.308 mPa·s

CC#N [acetonitrile] + CCC(C)O
x1 = 1
Settings | mass density, [4] [kg/m3] | refractive index, [3] | viscosity, [4] [mPa·s]
293.15 K | 782.04 | 1.3436 | 0.3542
298.15 K | 776.64 | 1.3411 | 0.3369
303.15 K | 771.21 | 1.339 | 0.3254
308.15 K | 765.75 | 1.3371 | 0.3082

CC#N [acetonitrile] + CCCC(C)O
x1 = 1
Settings | mass density, [4] [kg/m3] | refractive index, [3] | viscosity, [4] [mPa·s]
293.15 K | 782.04 | 1.3436 | 0.3542
298.15 K | 776.64 | 1.3411 | 0.3369
303.15 K | 771.21 | 1.339 | 0.3254
308.15 K | 765.75 | 1.3371 | 0.3082

CC#N [acetonitrile] + CCCCC(C)O
x1 = 1
Settings | mass density, [4] [kg/m3] | refractive index, [3] | viscosity, [4] [mPa·s]
293.15 K | 782.04 | 1.3436 | 0.3542
298.15 K | 776.64 | 1.3411 | 0.336
303.15 K | 771.21 | 1.339 | 0.325
308.15 K | 765.75 | 1.3371 | 0.308

CC#N [acetonitrile] + CCCCCC(C)O
x1 = 1
Settings | mass density, [4] [kg/m3] | refractive index, [3] | viscosity, [4] [mPa·s]
293.15 K | 782.04 | 1.3436 | 0.3542
298.15 K | 776.64 | 1.3411 | 0.3369
303.15 K | 771.21 | 1.339 | 0.3254
308.15 K | 765.75 | 1.3371 | 0.3082

CCC(C)O (stereo unspecified) [butan-2-ol]
Settings | mass density, [1] [kg/m3] | refractive index, [2] | viscosity, [1] [mPa·s]
293.15 K | 806.57 | 1.3966 | 3.912
298.15 K | 802.56 | 1.3946 | 3.132
303.15 K | 798.26 | 1.3924 | 2.534
308.15 K | 793.96 | 1.3905 | 2.172

CCCC(C)O (stereo unspecified) [pentan-2-ol]
Settings | mass density, [1] [kg/m3] | refractive index, [2] | viscosity, [1] [mPa·s]
293.15 K | 809.29 | 1.406 | 4.298
298.15 K | 805.24 | 1.4045 | 3.478

CC(C)O [propan-2-ol]
Settings | mass density, [1] [kg/m3] | refractive index, [2] | viscosity, [1] [mPa·s]
293.15 K | 785.19 | 1.3766 | 2.351
298.15 K | 780.98 | 1.3745 | 2.044
303.15 K | 776.71 | 1.3724 | 1.758
308.15 K | 772.36 | 1.3703 | 1.532

CC(C)O [propan-2-ol] + CC#N
x2 = 0
Settings | mass density, [4] [kg/m3] | refractive index, [3] | viscosity, [4] [mPa·s]
293.15 K | 785.19 | 1.3766 | 2.351
298.15 K | 780.98 | 1.3745 | 2.044
303.15 K | 776.71 | 1.3724 | 1.758
308.15 K | 772.36 | 1.3703 | 1.532
